The target of assay [1] is Leishmania donovani Topoisomerase 1 (LdTop1) (Leishmania donovani, UniProt A0A3Q8IHS4+Q8WQM6). Kind of assay: Plasmid DNA relaxation assay, LdTop1 (simultaneous incubation). It counts as biochemical. On the procedure: (§1) To investigate the inhibitory effect of our library compounds on the DNA relaxation activity of the recombinant Human and Leishmania topoisomerase 1 (Table 2), assays were performed involving supercoiled plasmid DNA, the enzymes (HTop1 and LdTop1) and our molecules. The enzymes were purified by the standard literature procedure.
Leishmania donovani Topoisomerase 1 (LdTop1), sequence (Q8WQM6 entry or part of it): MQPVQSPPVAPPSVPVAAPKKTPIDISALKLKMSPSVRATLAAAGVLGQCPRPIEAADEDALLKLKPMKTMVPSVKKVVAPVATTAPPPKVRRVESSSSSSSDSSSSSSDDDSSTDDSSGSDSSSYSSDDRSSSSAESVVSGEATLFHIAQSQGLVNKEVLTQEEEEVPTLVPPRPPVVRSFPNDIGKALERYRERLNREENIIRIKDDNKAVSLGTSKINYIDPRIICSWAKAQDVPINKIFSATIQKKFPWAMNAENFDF
Leishmania donovani Topoisomerase 1 (LdTop1), sequence (A0A3Q8IHS4 entry or part of it): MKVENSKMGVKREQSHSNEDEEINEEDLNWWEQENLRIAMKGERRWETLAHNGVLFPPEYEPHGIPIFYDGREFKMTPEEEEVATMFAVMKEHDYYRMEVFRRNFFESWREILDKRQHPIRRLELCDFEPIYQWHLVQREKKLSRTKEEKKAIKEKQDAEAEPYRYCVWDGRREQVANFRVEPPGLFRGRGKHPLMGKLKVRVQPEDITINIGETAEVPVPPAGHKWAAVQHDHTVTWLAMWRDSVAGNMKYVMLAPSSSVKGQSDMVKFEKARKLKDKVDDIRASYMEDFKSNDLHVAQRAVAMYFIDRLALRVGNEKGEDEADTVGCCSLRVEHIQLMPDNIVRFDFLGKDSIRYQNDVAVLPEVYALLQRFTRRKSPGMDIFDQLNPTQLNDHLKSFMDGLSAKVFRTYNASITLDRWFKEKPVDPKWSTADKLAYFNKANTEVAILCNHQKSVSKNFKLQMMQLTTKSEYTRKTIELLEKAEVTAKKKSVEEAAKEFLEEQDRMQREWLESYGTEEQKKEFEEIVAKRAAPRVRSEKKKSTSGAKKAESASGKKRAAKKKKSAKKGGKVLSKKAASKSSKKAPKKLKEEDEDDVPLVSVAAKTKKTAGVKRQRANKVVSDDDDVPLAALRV
All the experiments were conducted thrice and representative data from once set of them are expressed as mean ± SD.
(§2) The type I DNA topoisomerase are assayed by decreased mobility of the relaxed isomers of supercoiled pBS (SK^+) [pBlue-script (SK^+)] DNA in agarose gel. The relaxation assay was carried out as described previously with LdTop1B and HTop I, diluted in the relaxation buffer (25 mM Tris–HCl, pH 7.5, 5% glycerol, 0.5 mM DTT, 10 mM MgCl2, 50 mM KCl, […] and […] BSA) and supercoiled plasmid pBS (SK^+) DNA (85–95% were negatively supercoiled, with remainder being nicked circles)[9][28][29]. The reconstituted enzyme LdTop1B was assayed at 50 mM KCl concentration as described before. For all kinetic studies, the reaction mixtures containing the buffer and DNA were heated to 37 °C before addition of the enzymes. The reactions were rapidly quenched using stop solution and kept on ice. The gels were stained with ethidium bromide (EtBr) ([…]) and the amount of supercoiled monomer DNA band fluorescence were quantified by integration using Gel Doc 2000 under UV illumination (Bio-Rad Quantity One Software), as described previously.
Cells harvested from 1 litre of culture were separately lysed by lysozyme/sonication, and the proteins were purified through Ni-NTA (Ni^2+-nitriloacetate-agarose column (Qiagen, Hilden, Germany) followed by a phospho-cellulose column (P11 cellulose; Whatman, Maidstone Kent, UK) as described previously. Finally, the purified proteins LdTOP1L and LdTOP1S were stored at −70 °C. The concentrations of each protein were quantified by using Bradford Reagent (PIERCE, Thermo Fisher Scientific Inc., Rockford, USA). Purified LdTOP1L was mixed with purified LdTOP1S at a molar ratio of 1:1 to a total protein concentration of 0.5 mg/ml in reconstitution buffer [50 mM potassium phosphate, pH 7.5, 0.5 mM DTT, 1 mM EDTA, 0.1 mM PMSF and 10% (v/v) glycerol]. The mixture was dialyzed overnight at 4 °C and dialyzed fractions were used for plasmid relaxation activity.

A further assay deals with T1, Human Top1 (HTop1) (Homo sapiens, UniProt P11387).
T1 construct: made in house; host or cells: Sf-9 insect cells infected with recombinant baculovirus (gift from Prof. J. J. Champoux)
T1 sequence (P11387 1-765): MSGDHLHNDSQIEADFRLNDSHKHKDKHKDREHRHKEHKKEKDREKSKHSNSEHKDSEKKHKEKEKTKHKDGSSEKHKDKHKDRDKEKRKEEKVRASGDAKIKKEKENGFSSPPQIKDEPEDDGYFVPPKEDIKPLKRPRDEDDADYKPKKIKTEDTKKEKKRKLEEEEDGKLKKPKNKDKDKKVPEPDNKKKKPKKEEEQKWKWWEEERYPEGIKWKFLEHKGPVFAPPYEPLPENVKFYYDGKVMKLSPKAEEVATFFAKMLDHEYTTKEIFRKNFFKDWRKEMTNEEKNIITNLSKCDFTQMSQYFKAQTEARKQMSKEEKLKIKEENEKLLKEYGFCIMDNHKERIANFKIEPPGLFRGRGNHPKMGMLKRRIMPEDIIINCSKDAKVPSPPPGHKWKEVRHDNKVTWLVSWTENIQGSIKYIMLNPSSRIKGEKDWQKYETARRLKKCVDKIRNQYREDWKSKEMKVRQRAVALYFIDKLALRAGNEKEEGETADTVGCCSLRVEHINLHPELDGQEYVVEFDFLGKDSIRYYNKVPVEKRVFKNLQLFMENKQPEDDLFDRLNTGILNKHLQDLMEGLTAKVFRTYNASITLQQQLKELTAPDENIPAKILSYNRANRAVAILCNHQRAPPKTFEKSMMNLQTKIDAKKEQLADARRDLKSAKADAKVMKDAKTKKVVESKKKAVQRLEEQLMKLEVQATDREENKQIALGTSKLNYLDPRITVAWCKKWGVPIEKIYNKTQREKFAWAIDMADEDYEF
The assay is described as follows: Plasmid DNA relaxation assay, HTop1. It counts as biochemical. The settings on record: averages of three experiments, read-out: HTop1 inhibition (EC50). On the procedure: as §1, §2
The wild-type HTop1 (91 kDa) was purified from Sf-9 insect cells infected with the recombinant baculovirus (a kind gift from Prof. J. J. Champoux). Approximately, 1 * 10^9 Sf-9 cells were infected with the recombinant virus, and cells were harvested after 48-h of infection. The cells were lysed and enzyme was purified as described. Briefly, at 48 h post-infection, approximately 3 * 10^9 Sf-9 cells were harvested by centrifugation for 5 min at 400 * g. The cells were resuspended in 1 liter of ice-cold phosphate-buffered saline and centrifuged for 5 min at 400 * g. The nuclei were washed twice in 80 ml of lysis buffer minus Triton X-100 and resuspended in 40 ml of resuspension buffer (50 mM KCl, 10 mM Tris-Cl, pH 7.5, 2 mM MgCl2, 25 mM DTT, 0.4 mg/ml phenylmethylsulfonyl fluoride, 0.12 mg/ml aprotinin). The nuclear extract was stirred for 5 min at ~200 rpm. With continued stirring, 50 ml of polyethylene glycol (PEG) buffer (18% PEG 8000, 1 M NaCl, 10% glycerol) was added dropwise in order to precipitate the DNA. The PEG precipitate was pelleted by centrifugation and the resulting PEG supernatant was dialyzed against 4 liters of potassium phosphate buffer. The dialyzed PEG supernatant passed over a 10-ml bed volume of phosphocellulose (Whatman P11) equilibrated with PPB. The HTop1 flowed through the PS column and then passed over a Mono Q column followed by loaded onto a Mono S column. The Mono S column was eluted with a 25-ml 50–200 mM KPO4, pH 7.4, gradient. […] The peak Mono S fractions were pooled, concentrated with an Amicon ultrafiltration cell, dialyzed into storage buffer (50% glycerol, 10 mM Tris-hydrochloride, pH 7.5, 1 mM DTT, 1 mM EDTA), and stored at −20 °C.

Assay [2] concerns L. donovani AG83 promastigotes. Kind of assay: MTT assay on extracellular promastigotes. The assay is classed as cell-based. The note with it: Leishmania donovani, 12 h, read-out: Anti-promastigote activity IC50. On the procedure:
Next, compound 4 was screened against extracellular promastigotes.
L. donovani AG83 promastigotes (3.0 × 10^6 cells/ml) are incubated with different concentrations of drugs/compounds under study (1, 2, 5, 10 and 20 μM) for 12 h, following which the survival percentage is estimated by MTT assay. Yellow MTT (3-(4,5-dimethylthiazol- 2-yl)-2,5-diphenyltetrazolium bromide, a tetrazole) is reduced to purple formazan in the mitochondria of living cells. The formazan is then solubilized, and the concentration is determined by optical density at 570 nm. Metabolically active cells convert MTT to formazan, thereby generating a quantitative measure of viability and cytotoxicity. Percentage of viable promastigotes in each treatment groups are determined with respect to untreated control cells.

The mark [3] stands for this setting: plasmid DNA relaxation, averages of three experiments, read-out: LDTop1 inhibition (EC50).

Where two headings read alike, the source gives them in different places.

Regarding `Cc1cc2c(c(=O)[nH]1)C(=O)O/C2=C\c1cccc(I)c1` [Compound 15], the inhibition at 12.5 µM in assay [1] (LdTop1 relaxation, 12.5 uM, read-out: % inhibition, mean data) was 42.1%; in assay [1] (read-out: % inhibition (CPT 100%), data 1, LdTop1 relaxation, 12.5 uM) it was 41.1%; in assay [1] (read-out: % inhibition (CPT 100%), data 2, LdTop1 relaxation, 12.5 uM), 43.1%. The inhibition at 25 µM in assay [1] (LdTop1 relaxation, 25 uM, read-out: % inhibition, mean data) came to 55.3%; in assay [1] (read-out: % inhibition (CPT 100%), data 1, LdTop1 relaxation, 25 uM), 53.2%; in assay [1] (read-out: % inhibition (CPT 100%), data 2, LdTop1 relaxation, 25 uM), 57.3%. In assay [1] (LdTop1 relaxation, 50 uM), the “% inhibition (CPT 100%), data 2” value was found to be 74.2517%. Besides, the inhibition at 50 µM in assay [1] (LdTop1 relaxation, 50 uM, read-out: % inhibition, mean data) turned out to be 75.2%; in assay [1] (read-out: % inhibition (CPT 100%), data 1, LdTop1 relaxation, 50 uM), 76.2%; in assay [1] (read-out: % inhibition (CPT 100%), data 2, LdTop1 relaxation, 50 uM), 74.3%. The inhibition at 100 µM in assay [1] (LdTop1 relaxation, 100 uM, read-out: % inhibition, mean data) was 91.7%; in assay [1] (read-out: % inhibition (CPT 100%), data 1, LdTop1 relaxation, 100 uM) it was 93%; in assay [1] (read-out: % inhibition (CPT 100%), data 2, LdTop1 relaxation, 100 uM), 90.5%. In addition, in assay [1] (plasmid DNA relaxation), the “LdTop1 inhibitory activity” value is reported as “considerable activity”. The EC50 in assay [1] (setting [3]) was 17.4 ± 1.86 µM; in assay [1] (supplement sheet Ld Top 1 data, concentrations in uM, read-out: EC50 (LdTop1, supplement sheet)), 17.4 µM; at Human Top1 (HTop1), over 100 µM.
As to `CC/C=C1\OC(=O)c2c1cc(C)[nH]c2=O` [Compound 16], the “LdTop1 inhibitory activity” value in assay [1] (plasmid DNA relaxation) is on record as “no inhibitory activity at all”. Moreover, the EC50 (in assay [1] (setting [3]); at Human Top1 (HTop1)) was over 100 µM in each case.
Consider `Cc1cc2c(c(=O)[nH]1)C(=O)O/C2=C\c1ccc(Cl)cc1` [Compound 17], for which the EC50 (in assay [1] (setting [3]); on Human Top1 (HTop1)) was over 100 µM each time.
For the compound `Cc1cc2c(c(=O)[nH]1)C(=O)O/C2=C\c1ccc(I)cc1` [Compound 18], the EC50 (in assay [1] (setting [3]); on Human Top1 (HTop1)) was over 100 µM throughout.
Regarding `COc1ccc(/C=C2\OC(=O)c3c2cc(C)[nH]c3=O)cc1` [Compound 19], the EC50 (in assay [1] (setting [3]); at Human Top1 (HTop1)) was over 100 µM each time.
As to `Cc1cc2c(c(=O)[nH]1)C(=O)O/C2=C\c1ccccc1Br` [Compound 20], the EC50 (in assay [1] (setting [3]); on Human Top1 (HTop1)) was over 100 µM each time.
With `Cc1cc2c(c(=O)[nH]1)C(=O)O/C2=C\c1ccccc1Cl` [Compound 21], the EC50 (in assay [1] (setting [3]); on Human Top1 (HTop1)) was over 100 µM in each case.
For the compound `CCCCCCCCCCCCCCCCOP(=O)([O-])OCC[N+](C)(C)C` [miltefosine, reference compound], in assay [2], the IC50 was about 1 µM.

The inhibition is the drop in the measured response relative to a control, in per cent. The EC50 is the concentration at which the effect is half-maximal. One may read the IC50 as the concentration that inhibits the measured activity by half.

The values above are taken from article PMC4879574, “Identification of Leishmania donovani Topoisomerase 1 inhibitors via intuitive scaffold hopping and bioisosteric modification of known Top 1 inhibitors” (Scientific Reports, 2016).
